Assay results taken from US6211439A, “Herbicide resistance in plants” (MGI Pharma, Inc, priority 1995, dated 2001).
pIC50: −log10 of the molar value. Values after ≈ are worked out from the molar mass of the structure shown. Read-outs that look alike come from different tables or passages of the source.

Experiments:
[1] = tested on: maize cell suspension cultures; assay: Reversal of herbicide growth inhibition by leucine, valine and isoleucine; type: cell-based; parameters: key to Cell suspension culture growth, (+) 997: settled cell volume, ml per 10 ml of suspension
Experimental: Growth inhibition studies were carried out in 125 ml flasks containing 30 ml of test media. 997 was filter sterilized and added to cooling media following autoclaving. Test media were innoculated with cells to give a settled cell volume (15 minutes without centrifugation) of 0.2 ml per 10 ml of suspension. After either six or seven days growth settled cell volumes were again quantitated.
Cells were tested to determine whether the herbicide induced inhibition of growth was the result of the decreased availability of the three branched chain amino acids. Cells were exposed to toxic levels of 997 (1×10^-6 M) in media either supplemented with 1 mM concentrations of leucine, valine, and isoleucine or with no supplementation. Culture growth rates in the absence of amino acid supplementation and in the presence of 1×10^-6 M 997 were reduced to 16% that of herbicide free cultures.
Experiments were conducted to determine the optimum supplementation levels of each of the three amino acids to obtain maximum herbicide protection and for gaining insight into the site of action of the compound.

[2] = tested on: AHAS activity of line XA17 tissue; assay: AHAS activity assay, line XA17 tissue; type: biochemical, maize; settings: for pIC50: AHAS activity of line XA17 tissue, read-out: concentration inhibiting AHAS activity 50%; for change in herbicide sensitivity of AHAS, line XA17 vs control, on a concentration basis: maize
Experimental: (§1) Assays were conducted as a modification of the procedure of Smith et al. (1979, Molec. Gen. Genet. 169: 299-314). Plant cell culture material was ground with sand in a cold mortar and pestle in an equal quantity (w/v) of cell disruption media containing 0.05 M potassium phosphate (pH 7.0), 0.1 mM MgSO4, and 0.5 mM dithiothreitol. The preparation was centrifuged at 11,000×g for 20 minutes and the supernatant assayed for AHAS activity. Assays were conducted in 1 ml volumes containing 0.05 M potassium phosphate (pH 8.0), 40 mM pyruvate, 5 mM MgCl2, 0.1 mM thiamine pyrophosphate, 0.2 ml cell extract, and various concentrations of the herbicide of interest. The reaction mixtures were incubated at 30° C. for 75 minutes and the reaction terminated with the addition of 0.1 ml of 50% (v/v) H2 SO4. Following further incubation at 40° C. for 20 minutes, the acetoin formed from acetolactate by acidification was quantitated using the method of Westerfield (1945, J. Biol. Chem. 161: 495). To 0.2 ml of reaction mixture, 0.8 ml of water, 0.5 ml of 0.5% (w/v) creatine, and 0.5 ml of 5% (w/v) naphthol in 10% (w/v) NaOH was added. After mixing, solutions were incubated at room temperature for one hour. The development of pink color was quantitated by measuring light absorbance at 530 nm.
Assays were conducted to determine if acetohydroxyacid synthase extracted from line XA17 tissue was altered with respect to herbicide sensitivity. Such a change would signify that an alteration of this enzyme conferred the herbicide resistance. Assays were conducted as described supra.

[3] = tested on: Callus tissue from line UV18; assay: Callus growth inhibition, line UV18; type: cell-based, maize; settings: for Callus Growth Fold Increase in Tolerance: line UV18 vs control tissue, based on herbicide amount giving 50% reduction in growth rate
Experimental: The UV18 cell line was first observed after 25 weeks of selection comprising 9 subculture intervals. The tissue in the selection procedure had been exposed to 0.1 mg per liter 214 for four subculture intervals followed by exposure to 0.3 mg per liter 214 for four subculture intervals. UV18 was identified during the ninth subculture as a rapidly growing sector of tissue with good morphology.
(§2) Callus tissue from line QJ22 was tested also with the compound 567. The numbers represent the fold increase in herbicide concentration that can be tolerated by each of the cell lines as compared to control tissue. The values were calculated based on the amount of herbicide that gave a 50% reduction in growth rate.

line XA17 tissue = assay: Callus growth inhibition, resistant line XA17; type: cell-based, maize; settings: Zea mays, 336 h, read-out: level giving a 50% growth inhibition
Experimental: (§3) Therefore the effects of 214 were determined on callus growth. Quantities of tissue averaging 90 mg in size were transferred to nutrient agar maintenance media containing concentrations of 214 ranging from 0.003 to 3 mg per liter. Eight tissue pieces were placed on each plate with three plates per herbicide concentration. After 14 days growth, the tissue was weighed again.
Initially, the maximum level of 214 in which line XA17 would grow stably was determined. Stock tissue which had been maintained in the presence of 0.1 mg per liter 214 was transferred to media containing 214 levels ranging up to 30 mg per liter. Tissue was maintained for several subculture intervals and the growth rate evaluated.

[4] = tested on: Callus tissue from line QJ22; assay: Callus growth inhibition, line QJ22; type: cell-based, maize; settings: line QJ22 vs control tissue; based on herbicide amount giving 50% reduction in growth rate
Experimental: as §2

[5] = tested on: unselected maize callus tissue; assay: Callus culture growth inhibition, unselected tissue; type: cell-based; settings: for IC50: Zea mays, 336 h
Experimental: as §3

[6] = tested on: acetohydroxyacid synthase (AHAS); assay: AHAS activity assay, extract of maize cell cultures / control tissue; type: biochemical
Experimental: as §1, with “Plant” for “Assays were conducted as a modification of the procedure of Smith et al. (1979, Molec. Gen. Genet. 169: 299-314). Plant”, “Following further incubation at 40° C. for 20 minutes, the acetoin formed from acetolactate by acidification was quantitated using the method of Westerfield (1945, J. Biol. Chem. 161: 495).” left out, “hour.” for “hour. The development of pink color was quantitated by measuring light absorbance at 530 nm.”

[7] = read-out: level giving a 50% growth inhibition
[8] = AHAS activity of control tissue, read-out: concentration inhibiting AHAS activity 50%

SMILES: CC(C)C1(C)NC(c2nc3ccccc3cc2C(=O)O)=NC1=O (stereo not drawn) [compound 214, 2-(5-isopropyl-5-methyl-4-oxo-2-imidazolin-2-yl)3-quinolinecarboxylic acid]
- effect of media supplementation with leucine, isoleucine, valine on growth inhibition ([1]; 1 mM each of leucine, isoleucine, and valine, cell suspension cultures): reversed the growth inhibitory effects
- pIC50 [2]: 1.52 to 2.52
- change in herbicide sensitivity of AHAS, line XA17 vs control, on a concentration basis [2]: ≥ 1000 fold
- growth of UV18 tissue in presence of herbicide ([3]; 0.3 mg per liter 214, vs control tissue in the absence of herbicide): grew as rapidly
- Callus Growth Fold Increase in Tolerance [3]: 100 fold
- IC50 (line XA17 tissue): 30 µg/mL (≈ 96.4 µM)
- Callus Growth Fold Increase in Tolerance [4]: 5 fold
- Cell death ([5]; 14 day period, 0.003 to 3 mg per liter): not observed to occur
- IC50 ([5]; read-out: concentration giving half maximal inhibition of callus growth rate): 0.1 to 0.3 µg/mL (≈ 0.321 to 0.964 µM)
- IC50 [5, 7]: 0.1 to 0.3 µg/mL (≈ 0.321 to 0.964 µM)
- effect on AHAS enzyme activity ([6]; AHAS activity from maize cell cultures): inhibited the enzyme activity
- pIC50 [6, 8]: 5.00 to 6.00

SMILES: CC(C)C1(C)NC(c2ncccc2C(=O)O)=NC1=O (stereo not drawn) [compound 997, 2-(5-isopropyl-5-methyl-4-oxo-2-imidazolin-2-yl)nicotinic acid]
- Cell suspension culture growth, (+) 997 ([1]; 0.3 ile): .33
- Cell suspension culture growth, (+) 997 ([1]; 0.3 leu): .29
- Cell suspension culture growth, (+) 997 ([1]; 0.3 val): .48
- Culture growth rate relative to control cultures ([1]; 1×10^-6 M 997, media supplemented with 1 mM leucine, valine, and isoleucine): 91%
- effect of media supplementation with leucine, valine, isoleucine on growth inhibition ([1]; 997 ranging in concentration from 1×10^-8 to 1×10^-3 M): could reverse the growth inhibitory effects
- Cell suspension culture growth, (+) 997 ([1]; Leucine, Valine, Isoleucine 1,1,1): 1.88
- Cell suspension culture growth, (+) 997 ([1]; Leucine, Valine, Isoleucine 1,1,.1): .93
- Cell suspension culture growth, (+) 997 ([1]; Leucine, Valine, Isoleucine 1,1,.3): 1.55
- Cell suspension culture growth, (+) 997 ([1]; Leucine, Valine, Isoleucine 1,.1,1): 1.28
- Cell suspension culture growth, (+) 997 ([1]; Leucine, Valine, Isoleucine 1,.1,.1): 1.03
- Cell suspension culture growth, (+) 997 ([1]; Leucine, Valine, Isoleucine 1,.1,.3): 1.38
- Cell suspension culture growth, (+) 997 ([1]; Leucine, Valine, Isoleucine 1,.3,1): 1.45
- Cell suspension culture growth, (+) 997 ([1]; Leucine, Valine, Isoleucine 1,.3,.1): .98
- Cell suspension culture growth, (+) 997 ([1]; Leucine, Valine, Isoleucine 1,.3,.3): 1.40
- Cell suspension culture growth, (+) 997 ([1]; Leucine, Valine, Isoleucine .1,1,1): .60
- Cell suspension culture growth, (+) 997 ([1]; Leucine, Valine, Isoleucine .1,1,.1): .83
- Cell suspension culture growth, (+) 997 ([1]; Leucine, Valine, Isoleucine .1,1,.3): .68
- Cell suspension culture growth, (+) 997 ([1]; Leucine, Valine, Isoleucine .1,.1,1): .58
- Cell suspension culture growth, (+) 997 ([1]; Leucine, Valine, Isoleucine .1,.1,.1): .70
- Cell suspension culture growth, (+) 997 ([1]; Leucine, Valine, Isoleucine .1,.1,.3): .68
- Cell suspension culture growth, (+) 997 ([1]; Leucine, Valine, Isoleucine .1,.3,1): .80
- Cell suspension culture growth, (+) 997 ([1]; Leucine, Valine, Isoleucine .1,.3,.1): .75
- Cell suspension culture growth, (+) 997 ([1]; Leucine, Valine, Isoleucine .1,.3,.3): .90
- Cell suspension culture growth, (+) 997 ([1]; Leucine, Valine, Isoleucine .3,1,1): 1.30
- Cell suspension culture growth, (+) 997 ([1]; Leucine, Valine, Isoleucine .3,1,.1): 1.08
- Cell suspension culture growth, (+) 997 ([1]; Leucine, Valine, Isoleucine .3,1,.3): 1.30
- Cell suspension culture growth, (+) 997 ([1]; Leucine, Valine, Isoleucine .3,.1,1): .80
- Cell suspension culture growth, (+) 997 ([1]; Leucine, Valine, Isoleucine .3,.1,.1): .70
- Cell suspension culture growth, (+) 997 ([1]; Leucine, Valine, Isoleucine .3,.1,.3): .95
- Cell suspension culture growth, (+) 997 ([1]; Leucine, Valine, Isoleucine .3,.3,1): 1.08
- Cell suspension culture growth, (+) 997 ([1]; Leucine, Valine, Isoleucine .3,.3,.1): .95
- Cell suspension culture growth, (+) 997 ([1]; Leucine, Valine, Isoleucine .3,.3,.3): 1.18
- Cell suspension culture growth, (+) 997 ([1]; No Supplementation (4 replicates)): 0.30
- activity at 1 µM ([1]; Zea mays, 1×10^-6 M 997, absence of amino acid supplementation, read-out: Culture growth rate relative to herbicide free cultures): 16%
- pIC50 [2]: 1.52 to 2.52
- change in herbicide sensitivity of AHAS, line XA17 vs control, on a concentration basis [2]: ≥ 1000 fold
- Callus Growth Fold Increase in Tolerance [3]: 100 fold
- IC50 (line XA17 tissue): > 30 µg/mL
- Callus Growth Fold Increase in Tolerance [4]: 30-50 fold
- IC50 [5, 7]: 0.1 to 0.3 µg/mL (≈ 0.383 to 1.15 µM)
- pIC50 ([6]; AHAS activity from maize cell cultures, read-out: concentration reducing AHAS enzyme activity 50%): 5.10
- pIC50 [6, 8]: 5.00 to 6.00
